Laboratory results: ChEMBL document CHEMBL5346933, “Design and synthesis of novel arylurea derivatives of aryloxy(1-phenylpropyl) alicyclic diamines with antimicrobial activity against multidrug-resistant Gram-positive bacteria” (Eur J Med Chem, 2023)
≈ marks a conversion by molar mass, not a printed value. Calls of active or inactive are those of the source. The calls are words filed in the database; no cut-off is given here.

Legend:
[1] = tested on: Cell membrane; experiment: Induction of cell membrane depolarization in vancomycin-resistant Enterococcus faecium clinical strain assessed as bacterial cells with polarized membrane potential at 500 uM incubated for 25 to 30 mins by DiOC2(3) probe based flow cytometry (reference value: 96.8%); assay type: subcellular; conditions: time 25-30 min
[2] = tested on: Cell membrane; experiment: Induction of cell membrane depolarization in methicillin-resistant Staphylococcus aureus 19449 assessed as bacterial cells with polarized membrane potential at 500 uM incubated for 25 to 30 mins by DiOC2(3) probe based flow cytometry (reference value: 98.8%); assay type: subcellular; conditions: time 25-30 min
[3] = tested on: Cell membrane; experiment: Induction of cell membrane depolarization in vancomycin-resistant Enterococcus faecium clinical strain assessed as bacterial cells with depolarized membrane potential at 500 uM incubated for 25 to 30 mins by DiOC2(3) probe based flow cytometry (reference value: 0.8%); assay type: subcellular; conditions: time 25-30 min
[4] = tested on: Cell membrane; experiment: Induction of cell membrane depolarization in Staphylococcus aureus Newman assessed as bacterial cells with depolarized membrane potential at 500 uM incubated for 25 to 30 mins by DiOC2(3) probe based flow cytometry (reference value: 1.6%); assay type: subcellular; conditions: time 25-30 min
[5] = tested on: Cell membrane; experiment: Induction of cell membrane depolarization in vancomycin-resistant Enterococcus faecium clinical strain assessed as ratio of red to green fluorescence intensity at 500 uM incubated for 25 to 30 mins by DiOC2(3) probe based flow cytometry; assay type: subcellular; conditions: time 25-30 min
[6] = tested on: Cell membrane; experiment: Induction of cell membrane depolarization in Staphylococcus aureus Newman assessed as ratio of red to green fluorescence intensity at 500 uM incubated for 25 to 30 mins by DiOC2(3) probe based flow cytometry; assay type: subcellular; conditions: time 25-30 min
[7] = tested on: Cell membrane; experiment: Induction of cell membrane depolarization in methicillin-resistant Staphylococcus aureus 19449 assessed as ratio of red to green fluorescence intensity at 500 uM incubated for 25 to 30 mins by DiOC2(3) probe based flow cytometry; assay type: subcellular; conditions: time 25-30 min
[8] = tested on: Cell membrane; experiment: Induction of cell membrane depolarization in Staphylococcus aureus Newman assessed as bacterial cells with polarized membrane potential at 500 uM incubated for 25 to 30 mins by DiOC2(3) probe based flow cytometry (reference value: 94.3%); assay type: subcellular; conditions: time 25-30 min
[9] = tested on: Cell membrane; experiment: Induction of cell membrane depolarization in methicillin-resistant Staphylococcus aureus 19449 assessed as bacterial cells with depolarized membrane potential at 500 uM incubated for 25 to 30 mins by DiOC2(3) probe based flow cytometry (reference value: 0.7%); assay type: subcellular; conditions: time 25-30 min
[10] = tested on: Staphylococcus aureus; experiment: Antibacterial activity against methicillin-susceptible Staphylococcus aureus ATCC 25923 assessed as inhibition of bacterial growth incubated for 18 hrs by broth microdilution method; assay type: functional
[11] = tested on: Staphylococcus epidermidis; experiment: Antibacterial activity against linezolid-resistant Staphylococcus epidermidis NIL 4399/19 assessed as inhibition of bacterial growth incubated for 18 hrs by broth microdilution method; assay type: functional
[12] = tested on: Enterococcus faecalis; experiment: Antibacterial activity against Enterococcus faecalis ATCC 29212 assessed as inhibition of bacterial growth incubated for 18 hrs by broth microdilution method; assay type: functional
[13] = Cytotoxicity against human MRC5 cells assessed as reduction in cell viability incubated for 24 hrs by MTT assay; assay type: toxicity, cell-based
[14] = tested on: Escherichia coli; experiment: Antibacterial activity against Escherichia coli ATCC 25922 assessed as inhibition of bacterial growth incubated for 18 hrs by broth microdilution method; assay type: functional
[15] = tested on: Klebsiella pneumoniae; experiment: Antibacterial activity against Klebsiella pneumoniae ATCC 700603 assessed as inhibition of bacterial growth incubated for 18 hrs by broth microdilution method; assay type: functional
[16] = tested on: Staphylococcus epidermidis; experiment: Antibacterial activity against biofilm producer Staphylococcus epidermidis ATCC 35984 assessed as inhibition of bacterial growth incubated for 18 hrs by broth microdilution method; assay type: functional
[17] = tested on: Staphylococcus epidermidis; experiment: Antibacterial activity against methicillin-susceptible Staphylococcus epidermidis ATCC 12228 assessed as inhibition of bacterial growth incubated for 18 hrs by broth microdilution method; assay type: functional
[18] = Induction of hemolysis in horse RBC at 200 uM incubated for 1 hr; assay type: toxicity, cell-based, Equus caballus, Erythrocyte; conditions: horse red blood cells (erythrocytes), read-out: Activity
[19] = Cytotoxicity against human BJ cells assessed as reduction in cell viability incubated for 24 hrs by MTT assay; assay type: toxicity, cell-based
[20] = tested on: Pseudomonas aeruginosa; experiment: Antibacterial activity against Pseudomonas aeruginosa ATCC 27853 assessed as inhibition of bacterial growth incubated for 18 hrs by broth microdilution method; assay type: functional
[21] = tested on: Streptococcus pneumoniae; experiment: Antibacterial activity against Streptococcus pneumoniae ATCC 49619 assessed as inhibition of bacterial growth incubated for 18 hrs by broth microdilution method; assay type: functional
[22] = tested on: Staphylococcus aureus; experiment: Antibacterial activity against methicillin-resistant Staphylococcus aureus clinical strain 19449 assessed as inhibition of bacterial growth incubated for 18 hrs by broth microdilution method; assay type: functional
[23] = tested on: Staphylococcus aureus; experiment: Antibacterial activity against vancomycin-intermediate Staphylococcus aureus ATCC 700699 assessed as inhibition of bacterial growth incubated for 18 hrs by broth microdilution method; assay type: functional
[24] = Cytotoxicity against human BJ cells assessed as cell viability at 25 ug/ml incubated for 24 hrs by MTT assay; assay type: toxicity, cell-based; conditions: at 25 µg/mL, read-out: Activity
[25] = tested on: Staphylococcus aureus; experiment: Antibacterial activity against biofilm producer Staphylococcus aureus RN450 assessed as inhibition of bacterial growth incubated for 18 hrs by broth microdilution method; assay type: functional
[26] = tested on: Enterococcus faecium; experiment: Antibacterial activity against vancomycin-resistant Enterococcus faecium assessed as inhibition of bacterial growth incubated for 18 hrs by broth microdilution method; assay type: functional
[27] = tested on: Streptococcus pneumoniae; experiment: Antibacterial activity against Oxacillin-resistant Streptococcus pneumoniae O/19/4541 assessed as inhibition of bacterial growth incubated for 18 hrs by broth microdilution method; assay type: functional
[28] = tested on: Staphylococcus aureus; experiment: Antibacterial activity against Staphylococcus aureus Newman assessed as inhibition of bacterial growth incubated for 18 hrs by broth microdilution method; assay type: functional
[29] = tested on: Streptococcus pneumoniae; experiment: Antibacterial activity against macrolides-lincosamides and streptogramins B-resistant Streptococcus pneumoniae O/19/4199 assessed as inhibition of bacterial growth incubated for 18 hrs by broth microdilution method; assay type: functional

Compound | MIC [10] [µg/mL] | MIC [11] [µg/mL] | MIC [12] [µg/mL] | IC50 at 24 h [13] [µg/mL] | Activity [14] | Activity [15] | MIC [16] [µg/mL] | MIC [17] [µg/mL] | hemolysis at 1 h, 200 µM [18] [%] | IC50 at 24 h [19] [µg/mL] | Activity [20] | MIC [21] [µg/mL] | MIC [22] [µg/mL] | MIC [23] [µg/mL] | MIC [25] [µg/mL] | MIC [26] [µg/mL] | also measured
N#CC(C#N)=NNc1cccc(Cl)c1 |  |  |  |  |  |  |  |  |  |  |  |  |  |  |  |  | Activity [1]: 6.5%; Activity [2]: 0.3%; Activity [3]: 88.1%; Activity [4]: 94.5%; Ratio [5]: 0.29; Ratio [6]: 0.33; Ratio [7]: 0.34; Activity [8]: 0%; Activity [9]: 99%
O=C(Nc1cccc(Cl)c1)NC1CCN(CCC(Oc2cccc(Cl)c2)c2ccccc2)CC1 (racemic) | 3.12 (≈ 6.27 µM) | 3.12 (≈ 6.27 µM) | 3.12 (≈ 6.27 µM) | 6.25 (≈ 12.5 µM) | inactive | inactive | 1.56 (≈ 3.13 µM) | 3.12 (≈ 6.27 µM) | < 1 | > 25 | inactive | 6.25 (≈ 12.5 µM) | 3.12 (≈ 6.27 µM) | 3.12 (≈ 6.27 µM) | 1.56 (≈ 3.13 µM) | 1.56 (≈ 3.13 µM) | viability at 24 h, 25 ug/ml [24]: 91%
O=C(Nc1cccc(Cl)c1)N[C@H]1CCN(CCC(Oc2cccc(Cl)c2)c2ccccc2)C1 (some centres not stated) | 3.12 (≈ 6.45 µM) | 3.12 (≈ 6.45 µM) | 3.12 (≈ 6.45 µM) | 3.12 (≈ 6.45 µM) | inactive | inactive | 3.12 (≈ 6.45 µM) | 3.12 (≈ 6.45 µM) | 8 | 6.25 (≈ 12.9 µM) | inactive | 6.25 (≈ 12.9 µM) | 3.12 (≈ 6.45 µM) | 3.12 (≈ 6.45 µM) | 3.12 (≈ 6.45 µM) | 0.78 (≈ 1.61 µM) | 
O=C(Nc1cccc(Cl)c1)NC1CCN(CCC(Oc2ccc(Cl)cc2)c2ccccc2)CC1 (racemic) | 3.12 (≈ 6.27 µM) | 3.12 (≈ 6.27 µM) | 3.12 (≈ 6.27 µM) | 6.25 (≈ 12.5 µM) | inactive | inactive | 1.56 (≈ 3.13 µM) | 3.12 (≈ 6.27 µM) | < 1 | 12.5 (≈ 25.1 µM) | inactive | 6.25 (≈ 12.5 µM) | 3.12 (≈ 6.27 µM) | 3.12 (≈ 6.27 µM) | 1.56 (≈ 3.13 µM) | 1.56 (≈ 3.13 µM) | 
O=C(NCC1CCN(CCC(Oc2ccc(Cl)cc2)c2ccccc2)CC1)Nc1cccc(Cl)c1 (racemic) | 6.25 (≈ 12.2 µM) | 6.25 (≈ 12.2 µM) | 3.12 (≈ 6.1 µM) | 3.12 (≈ 6.1 µM) | inactive | inactive | 3.12 (≈ 6.1 µM) | 3.12 (≈ 6.1 µM) | 6 | 12.5 (≈ 24.4 µM) | inactive | 6.25 (≈ 12.2 µM) | 6.25 (≈ 12.2 µM) | 3.12 (≈ 6.1 µM) | 3.12 (≈ 6.1 µM) | 0.39 (≈ 0.761 µM) | 
CC(=O)NC[C@H]1CN(c2ccc(N3CCOCC3)c(F)c2)C(=O)O1 [LINEZOLID] | 3.12 (≈ 9.26 µM) | 250 (≈ 741 µM) | 1.56 (≈ 4.62 µM) |  |  |  | 1.56 (≈ 4.62 µM) | 1.56 (≈ 4.62 µM) |  |  |  | 0.78 (≈ 2.31 µM) | 3.12 (≈ 9.26 µM) | 1.56 (≈ 4.62 µM) | 0.78 (≈ 2.31 µM) | 0.78 (≈ 2.31 µM) | MIC [27]: 1.56 µg/mL (≈ 4.62 µM); MIC [28]: 1.56 µg/mL (≈ 4.62 µM); MIC [29]: 1.56 µg/mL (≈ 4.62 µM)
CN[C@H](CC(C)C)C(=O)N[C@H]1C(=O)N[C@@H](CC(N)=O)C(=O)N[C@H]2C(=O)N[C@H]3C(=O)N[C@H](C(=O)N[C@H](C(=O)O)c4cc(O)cc(O)c4-c4cc3ccc4O)[C@H](O)c3ccc(c(Cl)c3)Oc3cc2cc(c3O[C@@H]2O[C@H](CO)[C@@H](O)[C@H](O)[C@H]2O[C@H]2C[C@](C)(N)[C@H](O)[C@H](C)O2)Oc2ccc(cc2Cl)[C@H]1O [VANCOMYCIN] | 0.78 (≈ 0.538 µM) |  | 0.78 (≈ 0.538 µM) |  |  |  | 0.78 (≈ 0.538 µM) | 0.78 (≈ 0.538 µM) |  |  |  | 0.39 (≈ 0.269 µM) | 0.78 (≈ 0.538 µM) | 6.25 (≈ 4.31 µM) |  | 50 (≈ 34.5 µM) | MIC [27]: 0.1 µg/mL (≈ 0.069 µM)
O=C(NCC1CCN(CCC(Oc2ccc(C(F)(F)F)cc2)c2ccccc2)CC1)Nc1cccc(Cl)c1 (racemic) | 3.12 (≈ 5.72 µM) | 3.12 (≈ 5.72 µM) | 3.12 (≈ 5.72 µM) | 3.12 (≈ 5.72 µM) | inactive | inactive | 1.56 (≈ 2.86 µM) | 1.56 (≈ 2.86 µM) | 5 | 3.12 (≈ 5.72 µM) | inactive | 12.5 (≈ 22.9 µM) | 3.12 (≈ 5.72 µM) | 6.25 (≈ 11.4 µM) | 1.56 (≈ 2.86 µM) | 0.78 (≈ 1.43 µM) | 
